# Results from ChEMBL document CHEMBL5385846, “Discovery and development of palmatine analogues as anti-NASH agents by activating farnesoid X receptor (FXR)” (Eur J Med Chem, 2023).
# Activity calls are given as the source filed them. No cut-off for these calls is given here.
# How the values were obtained:
# Mus musculus [1] = assay: Hepatoprotective activity in CDAHFD induced C57BL/6N mouse liver injury model assessed as decrease in LDH level at 200 mg/kg,po qd administration for 4 weeks; format: functional, organism-based
# Mus musculus [2] = assay: Hepatoprotective activity in CDAHFD induced C57BL/6N mouse liver injury model assessed as inhibition of lipid peroxidation at 200 mg/kg,po qd administration for 4 weeks; format: functional, organism-based
# [3] = Acute toxicity in Kunming mouse assessed as lethal dose at po administration; format: organism-based; details: in vivo
# Mus musculus [4] = assay: Antifibrotic activity in CDAHFD induced non-alcoholic steatohepatitis C57BL/6N mouse model assessed as downregulation of TGF-beta1 protein expression at 200 mg/kg,po qd administration for 4 weeks by Western blotting analysis; format: functional, organism-based
# [5] = Metabolic stability in Sprague-Dawley rat liver microsomes assessed as compound remaining at 1 micromol/L measured upto 60 mins in presence of NADPH by LC-MS/MS analysis; format: ADME, Microsome; details: dose 1 µmol/L, read-out: Stability
# LX-2 [6] = assay: Antifibrotic activity in TGF-beta1 induced human LX2 cells assessed as downregulation of TIMP1 mRNA expression incubated for 24 hrs by qRT-PCR analysis; format: functional, cell-based
# LX-2 [7] = assay: Antifibrotic activity in TGF-beta1 induced human LX2 cells assessed as downregulation of alpha-SMA mRNA expression incubated for 24 hrs by qRT-PCR analysis; format: functional, cell-based
# [8] = Acute toxicity in Kunming mouse assessed as effect on AST level at 250 to 1000 mg/kg,po administration; format: organism-based; details: in vivo, dose 250-1000 mg/kg
# Mus musculus [9] = assay: Anti-inflammatory activity in CDAHFD induced C57BL/6N mouse liver injury model assessed as downregulation of IL-6 protein expression in liver at 200 mg/kg,po qd administration for 4 weeks by Western blotting analysis; format: functional, organism-based
# [10] = Metabolic stability in CD-1 mouse liver microsomes assessed as compound remaining at 1 micromol/L measured upto 60 mins in presence of NADPH by LC-MS/MS analysis; format: ADME, Microsome; details: 1 h, 1 µM, dose 1 µmol/L
# Rattus norvegicus [11] = assay: Antifibrotic activity in bile duct ligation induced Sprague-Dawley rat liver fibrosis model assessed as downregulation of TGF-beta1 mRNA expression at 200 mg/kg,po qd administration for 14 days by qRT-PCR analysis; format: functional, organism-based; details: time 14.0 day
# Rattus norvegicus [12] = assay: Hepatoprotective activity in bile duct ligation induced Sprague-Dawley rat liver injury model assessed as decrease in AST level at 200 mg/kg,po qd administration for 14 days; format: functional, organism-based; details: time 14.0 day
# Mus musculus [13] = assay: Anti-inflammatory activity in CDAHFD induced C57BL/6N mouse liver injury model assessed as downregulation of MCP1 mRNA expression in liver at 200 mg/kg,po qd administration for 4 weeks by qRT-PCR analysis; format: functional, organism-based
# [14] = Metabolic stability in CD-1 mouse liver microsomes assessed as microsomal intrinsic clearance at 1 micromol/L measured upto 60 mins in presence of NADPH by LC-MS/MS analysis; format: ADME, Microsome; details: dose 1 µmol/L, read-out: CLH
# [15] = Metabolic stability in human liver microsomes assessed as intrinsic clearance at 1 micromol/L measured upto 60 mins in presence of NADPH by LC-MS/MS analysis; format: ADME, Microsome; details: 1 h, 1 µM, dose 1 µmol/L
# Rattus norvegicus [16] = assay: Antifibrotic activity in bile duct ligation induced Sprague-Dawley rat liver fibrosis model assessed as downregulation of NTCP protein expression at 200 mg/kg,po qd administration for 14 days by Western blotting analysis; format: functional, organism-based; details: time 14.0 day
# Mus musculus [17] = assay: Hepatoprotective activity in CDAHFD induced C57BL/6N mouse liver injury model assessed as decrease in total cholesterol level at 200 mg/kg,po qd administration for 4 weeks; format: functional, organism-based
# Mus musculus [18] = assay: Antifibrotic activity in CDAHFD induced non-alcoholic steatohepatitis C57BL/6N mouse model assessed as downregulation of MMP2 mRNA expression at 200 mg/kg,po qd administration for 4 weeks by qRT-PCR analysis; format: functional, organism-based
# LX-2 [19] = assay: Antifibrotic activity in TGF-beta1 induced human LX2 cells assessed as downregulation of alpha-SMA protein expression incubated for 24 hrs by western blotting analysis; format: functional, cell-based
# Rattus norvegicus [20] = assay: Antifibrotic activity in bile duct ligation induced Sprague-Dawley rat liver fibrosis model assessed as upregulation of FXR protein expression at 200 mg/kg,po qd administration for 14 days by Western blotting analysis; format: functional, organism-based; details: time 14.0 day
# [21] = Metabolic stability in human liver microsomes assessed as compound remaining at 1 micromol/L measured upto 60 mins in presence of NADPH by LC-MS/MS analysis; format: ADME, Microsome; details: dose 1 µmol/L, read-out: Stability
# Mus musculus [22] = assay: Hepatoprotective activity in CDAHFD induced C57BL/6N mouse liver injury model assessed as increase in HDL level at 200 mg/kg,po qd administration for 4 weeks; format: functional, organism-based
# Mus musculus [23] = assay: Antifibrotic activity in CDAHFD induced non-alcoholic steatohepatitis C57BL/6N mouse model assessed as downregulation of COL1A1 protein expression at 200 mg/kg,po qd administration for 4 weeks by Western blotting analysis; format: functional, organism-based
# LX-2 [24] = assay: Antifibrotic activity in TGF-beta1 induced human LX2 cells assessed as downregulation of COL1A1 protein expression incubated for 24 hrs by western blotting analysis; format: functional, cell-based
# Mus musculus [25] = assay: Antifibrotic activity in CDAHFD induced non-alcoholic steatohepatitis C57BL/6N mouse model assessed as downregulation of COL1A1 mRNA expression at 200 mg/kg,po qd administration for 4 weeks by qRT-PCR analysis; format: functional, organism-based
# THP-1 [26] = assay: Anti-inflammatory activity in PMA differentiated human THP-1 cells assessed as downregulation of IL-1beta protein expression at 10 micromol/L incubated for 4 hrs followed by LPS and Nigericin addition for 3.5 hrs by Western blotting analysis; format: functional, cell-based; details: dose 10.0 µmol/L, time 7.5 hrs
# [27] = Half life in CD-1 mouse liver microsomes at 1 micromol/L measured upto 60 mins in presence of NADPH by LC-MS/MS analysis; format: ADME, Microsome; details: 1 h, 1 µM, dose 1 µmol/L
# Mus musculus [28] = assay: Antifibrotic activity in CDAHFD induced non-alcoholic steatohepatitis C57BL/6N mouse model assessed as downregulation of TGF-beta1 mRNA expression at 200 mg/kg,po qd administration for 4 weeks by qRT-PCR analysis; format: functional, organism-based
# THP-1 [29] = assay: Anti-inflammatory activity in PMA differentiated human THP-1 cells assessed as downregulation of caspase-1 protein expression at 5 micromol/L incubated for 4 hrs followed by LPS and Nigericin addition for 3.5 hrs by Western blotting analysis; format: functional, cell-based; details: dose 5.0 µmol/L, time 7.5 hrs
# [30] = target: Collagen alpha-1(I) chain (Homo sapiens) (UniProt P02452); assay: Inhibition of COL1A1 (unknown origin) expressed in human LX2 cells at 20 micromol/L incubated for 48 hrs by Bright-Glo luciferase assay relative to control; format: cell-based; details: dose 20.0 µmol/L
# Collagen alpha-1(I) chain (Homo sapiens), sequence (P02452 whole entry): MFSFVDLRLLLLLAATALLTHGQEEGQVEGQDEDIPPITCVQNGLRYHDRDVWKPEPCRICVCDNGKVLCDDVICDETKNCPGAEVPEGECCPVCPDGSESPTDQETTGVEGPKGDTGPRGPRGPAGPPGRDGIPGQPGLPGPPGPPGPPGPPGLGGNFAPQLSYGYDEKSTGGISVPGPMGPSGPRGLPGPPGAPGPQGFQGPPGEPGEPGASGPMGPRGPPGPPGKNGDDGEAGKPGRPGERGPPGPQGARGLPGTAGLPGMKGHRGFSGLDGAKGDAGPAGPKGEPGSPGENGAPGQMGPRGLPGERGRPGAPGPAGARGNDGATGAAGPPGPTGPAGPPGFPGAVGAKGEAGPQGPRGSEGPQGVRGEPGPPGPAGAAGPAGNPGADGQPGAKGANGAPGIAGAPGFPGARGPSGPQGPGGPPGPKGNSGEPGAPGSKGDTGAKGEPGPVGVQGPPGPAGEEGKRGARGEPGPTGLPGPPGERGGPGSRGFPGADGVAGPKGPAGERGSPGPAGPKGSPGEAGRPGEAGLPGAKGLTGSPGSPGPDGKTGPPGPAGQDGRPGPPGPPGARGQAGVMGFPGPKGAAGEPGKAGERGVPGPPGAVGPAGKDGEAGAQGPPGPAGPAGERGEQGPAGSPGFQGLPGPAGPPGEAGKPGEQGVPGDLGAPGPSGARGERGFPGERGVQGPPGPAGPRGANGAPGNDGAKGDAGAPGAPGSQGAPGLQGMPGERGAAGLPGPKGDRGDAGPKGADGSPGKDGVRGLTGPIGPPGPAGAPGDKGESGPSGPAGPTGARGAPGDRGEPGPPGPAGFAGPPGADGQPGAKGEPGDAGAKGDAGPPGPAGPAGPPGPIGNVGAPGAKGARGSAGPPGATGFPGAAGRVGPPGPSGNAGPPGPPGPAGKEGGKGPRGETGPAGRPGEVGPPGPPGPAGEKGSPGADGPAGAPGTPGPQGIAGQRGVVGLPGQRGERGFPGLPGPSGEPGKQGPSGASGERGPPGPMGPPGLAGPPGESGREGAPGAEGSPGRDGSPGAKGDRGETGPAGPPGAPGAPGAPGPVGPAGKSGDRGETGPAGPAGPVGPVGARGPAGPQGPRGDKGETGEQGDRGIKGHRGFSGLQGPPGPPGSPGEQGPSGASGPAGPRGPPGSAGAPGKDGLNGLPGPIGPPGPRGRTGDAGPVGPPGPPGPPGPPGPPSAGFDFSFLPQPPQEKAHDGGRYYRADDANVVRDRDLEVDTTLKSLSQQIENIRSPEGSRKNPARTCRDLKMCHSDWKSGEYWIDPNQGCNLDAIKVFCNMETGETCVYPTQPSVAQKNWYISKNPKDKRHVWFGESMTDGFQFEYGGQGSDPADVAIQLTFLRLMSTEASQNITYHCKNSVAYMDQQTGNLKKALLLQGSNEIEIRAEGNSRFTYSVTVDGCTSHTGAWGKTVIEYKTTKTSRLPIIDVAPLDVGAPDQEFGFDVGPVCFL
# [31] = Metabolic stability in CD-1 mouse liver microsomes assessed as intrinsic clearance at 1 micromol/L measured upto 60 mins in presence of NADPH by LC-MS/MS analysis; format: ADME, Microsome; details: 1 h, 1 µM, dose 1 µmol/L
# [32] = Metabolic stability in Sprague-Dawley rat liver microsomes assessed as intrinsic clearance at 1 micromol/L measured upto 60 mins in presence of NADPH by LC-MS/MS analysis; format: ADME, Microsome; details: 1 h, 1 µM, dose 1 µmol/L
# [33] = Metabolic stability in human liver microsomes assessed as microsomal intrinsic clearance at 1 micromol/L measured upto 60 mins in presence of NADPH by LC-MS/MS analysis; format: ADME, Microsome; details: dose 1 µmol/L, read-out: CLH
smiles,measurement,setting,value
COc1cc2c(cc1OC)-c1cc3ccc(OC)c(OCc4cccc(C)c4)c3c[n+]1CC2.[Br-],Activity,Mus musculus [1],Active
same,Activity,Mus musculus [2],Active
same,LD50,[3],> 1000 mg/kg
same,Activity,Mus musculus [4],Active
same,"remaining at 1 h, 1 µM",[5],0.4%
same,Activity,LX-2 [6],Dose-Dependent Effect
same,Activity,LX-2 [7],Dose-Dependent Effect
same,Activity,[8],Non-Toxic
same,Activity,Mus musculus [9],Active
same,Stability,[10],39%
same,Activity,Rattus norvegicus [11],Active
same,Activity,Rattus norvegicus [12],Active
same,Activity,Mus musculus [13],Active
same,microsomal CLint at 1 µM,[14],188 µL/min/mg
same,"CLint,scaled",[15],23.4 mL/min/kg
same,Activity,Rattus norvegicus [16],Active
same,Activity,Mus musculus [17],inactive
same,Activity,Mus musculus [18],Active
same,Activity,LX-2 [19],Dose-Dependent Effect
same,Activity,Rattus norvegicus [20],Active
same,"remaining at 1 h, 1 µM",[21],44.1%
same,Activity,Mus musculus [22],Active
same,Activity,Mus musculus [23],Active
same,Activity,LX-2 [24],Dose-Dependent Effect
same,Activity,Mus musculus [25],Active
same,Activity,THP-1 [26],Active
same,t1/2,[27],7.4 min
same,Activity,Mus musculus [28],Active
same,Activity,THP-1 [29],Active
same,inhibition,[30],72.4%
same,"CLint,scaled",[31],744 mL/min/kg
same,"CLint,scaled",[32],338 mL/min/kg
same,microsomal CLint at 1 µM,[33],26 µL/min/mg
